Experimental data: patent US20240207262A1, “PROPHYLACTIC AND/OR THERAPEUTIC AGENT FOR AMYOTROPHIC LATERAL SCLEROSIS” (NATIONAL UNIVERSITY CORPORATION TOKAI NATIONAL HIGHER …, priority 2021, published 2024)

Tests used:
[1] = system: NSC34 cells (mouse motor neuron) expressing TDP-43^A315T; assay: WST cell viability assay, NSC34 cells transfected with TDP-43^A315T; format: cell-based; conditions: for Viability (TDP-43^A315T): ratio of maximum viability to viability at 0 μM
Method: (§1) A pathological cell model was created by transient forced expression of the following genes in NSC34 cells (mouse motor neuron) by transfecting the cells with a plasmid using Lipofectamine 2000 (R) (Thermo Fisher Scientific), and changes in cell viability due to drug administration were analyzed by WST assay.
(§2) • Day 0: NSC 34 cell culture (DMEM FBS 10%) • Day 1: Transfection (Cells were transfected with a plasmid having the following genes inserted by using Lipofectamine 2000 (R) (Thermo Fisher Scientific).) • 1. Mock (unmutated cells: control plasmid-transfected cells) • 2. TDP-43^A315T: TDP-43 mutation model (reflecting human pathological conditions) • 3. SOD1^G93A: mutation SOD1 familial model (mutation common to humans and animal models) • Cell culture is continued afterward in FBS-free DMEM. • Day 4: Drug administration • Day 5: WST assay (Cell viability is measured to determine the effect of drug administration.)
(§3) Two types of cellular models were used to bridge the gap between SOD1 transgenic mouse models and sporadic ALS human pathological conditions (TDP-43 cell model).
(§4) The viability indicates the ratio of maximum viability to viability at 0 μM. The […] PF-04457845 yielded a viability about 1.3 times the viability with the existing drug riluzole (control) at a concentration one-tenth the concentration of riluzole.

[2] = Body weight of SOD1^G93A transgenic mice; format: in vivo, mouse; conditions: 1 mg/kg/day in diet, vs control diet; 2-way ANOVA; trend toward limiting weight loss
Method: (§5) PF-04457845 was mixed in the diet, and administration started at 8 weeks of age. […] Drug efficacy analysis was conducted using body weight, motion analysis based on the Rotarod test (measured once a week), and survival analysis.
(§6) • Week 0: • Week 6: 1. Body weight, 2. Rotarod test (the method for measuring the motor function of mice) • Week 8: The drug (PF-04457845) was mixed with the diet, and administration started. • Week 9-10: Onset • Around week 17-20: Survival analysis
(§7) PF-04457845 was administered at a dose of 1 mg/kg/day. The dosage was determined based on a previous report on administration to rats (Ahn K et al. Journal of Pharmacology and Experimental Therapeutics 2011: 338; 114-124).

[3] = system: SOD1^G93A transgenic mice; assay: Survival analysis in SOD1^G93A transgenic mice; format: in vivo, mouse; conditions: 1 mg/kg/day mixed in diet from 8 weeks of age, vs control diet; log rank test p<0.001
Method: as §5
An ALS model animal with mutation of SOD1 gene, which is responsible for familial ALS, was used to conduct efficacy analysis of PF-04457845. The control was one that was free of the drug.
as §6, §7
In accordance with the method shown in FIG. 6, survival analysis was performed. • ♂ (male), PF-04457845: n=8, Control: […] • ♀ (female), PF-04457845: n=8, Control: n=13 • Log rank test p<0.001

[4] = system: mouse spinal cord motor neurons; assay: Spinal cord ChAT staining (motor neurons) in SOD1^G93A transgenic mice; format: in vivo
Method: as §5
In accordance with the method shown in FIG. 6, the drug was administered, and the pathological specimens of mouse spinal cords in an advanced stage of the disease were subjected to ChAT staining (motor neuron).
19W and 22W PF-04457845-administered mouse spinal cords were compared with a 19W control-administered mouse spinal cord.
The photographs are of a 22W PF-04457845-administered mouse spinal cord and a 19W control-administered mouse spinal cord.
(§8) A 16W PF-04457845-administered mouse spinal cord was compared with a 16W control-administered mouse spinal cord.
The photographs are of the 16W PF-04457845-administered mouse spinal cord and 16W control-administered mouse spinal cord.

[5] = system: SOD1^G93A transgenic mice; assay: Rotarod test (motion analysis) in SOD1^G93A transgenic mice; format: in vivo, mouse; conditions: 1 mg/kg/day in diet, vs control diet; 2-way ANOVA, p=0.002
Method: as §5, §6, §7

[6] = system: NSC34 cells (mouse motor neuron) expressing SOD1^G93A; assay: WST cell viability assay, NSC34 cells transfected with SOD1^G93A; format: cell-based; conditions: for Viability (SOD1^G93A): ratio of maximum viability to viability at 0 μM
Method: as §1, §2, §3, §4

NSC34 cells = assay: WST cell viability assay, NSC34 ALS model cells (model not given); format: cell-based, mouse
Method: as §1, §2
The experimental conditions are those described in FIG. 3.

microglia = assay: Spinal cord Iba-1 staining in SOD1^G93A transgenic mice; format: in vivo; conditions: 16W treated vs 16W control mouse spinal cord
Method: as §5, §8

mouse spinal cords = assay: Mouse spinal cord RNA sequencing (GO and IPA analysis) in SOD1^G93A transgenic mice; format: in vivo; conditions: 16 weeks of age, drug diet vs control diet
Method: The experiment of PF-04457845 administration to SOD1^G93A transgenic mice was continued, and RNA sequencing of the spinal cord was performed on mice treated with a drug-infused diet and mice treated with a control diet, both at 16 weeks of age.
GO analysis: This is a method for analyzing a group of genes that have many variable genes when genes are grouped according to their functionality among mRNAs whose RNA sequences show changes.
IPA analysis: An analysis to explore the association of known pathways, upstream factors, and toxicity with disease.

astrocytes = assay: Spinal cord GFAP staining in SOD1^G93A transgenic mice; format: in vivo; conditions: 16W treated vs 16W control mouse spinal cord
Method: as §5, §8

SMILES | Improving cell viability, TDP-43 mutation (A315T) cell model ([1]; 10 nM) | Viability (TDP-43^A315T) ([1]; concentration 10 nM) | Body weight [2] | Survival period [3] | ChAT-positive motor neuron count in spinal cord ([4]; 16W treated mice vs 16W control mice) | ChAT-positive motor neuron count in spinal cord ([4]; 19W and 22W treated mice vs 19W control mice, advanced stage) | Rotarod test (motor function) [5] | Improving cell viability, SOD1 (G93A) mutation cell model ([6]; 10 nM) | Viability (SOD1^G93A) ([6]; concentration 10 nM) | Viability relative to the viability with riluzole (control) (NSC34 cells; at a concentration one-tenth the concentration of riluzole) | Improving effect on cell viability compared with other FAAH inhibitors (NSC34 cells; vs PF-3845, arachidonoyl serotonin, FAAH inhibitor II, conditions of FIG. 3) | Iba-1 staining: proliferation of microglia (microglia) | Expression of CD36 in mouse spinal cords (mouse spinal cords) | Expression of Pla2g3 in mouse spinal cords (mouse spinal cords) | Expression of lipoprotein lipase (Lpl) in mouse spinal cords (mouse spinal cords) | IL-13 signaling pathway (IPA analysis) (mouse spinal cords) | GFAP staining: proliferation of astrocytes (astrocytes) | Viability (TDP-43^A315T) ([1]; concentration 0.1 μM) | Viability (SOD1^G93A) ([6]; concentration 0.1 μM)
O=C(Nc1cccnn1)N1CCC(=Cc2cccc(Oc3ccc(C(F)(F)F)cn3)c2)CC1 [PF-04457845, N-pyridazin-3-yl-4-(3-{[5-(trifluoromethyl)pyridin-2-yl]oxy}benzylidene) piperidine-1-carboxamide] | highly effective in improving the cell viability | 1.31 | no significant difference in body weight | effect of prolonging the survival period was observed | effect of limiting the decrease in motor neuron count | effect of limiting the decrease in motor neuron count | significant progression-inhibiting effect | highly effective in improving the cell viability | 1.26 | about 1.3 times | more effective in improving cell viability | effect of inhibiting the proliferation of microglia | increased | decreased | increased | activation of IL-13 signaling pathway | effect of inhibiting the proliferation of astrocytes |  | 
Nc1nc2ccc(OC(F)(F)F)cc2s1 [Riluzole, riluzole] |  |  |  |  |  |  |  |  |  |  |  |  |  |  |  |  |  | 1.03 | 1.00
